From patent publication US20120016019A1, “PHARMACEUTICAL COMPOSITION FOR TREATING OR PREVENTING CANCER” (priority 2010, published 2012)
“And” between values parts separate entries of the source, which are not always exact repeats. Equal values may be shown once. Read-outs that look alike come from different tables or passages of the source.

Tests used:
[1] = system: HCC 1419; test: XTT cell viability assay, HCC 1419; conditions: for The absorbance, Mean value / The absorbance / The absorbance, group - Blank: XTT 500 nm; for The absorbance: single wells
Experimental: Cancer cell lines HCC 1419, MCF-7, MDA-MB-468, SKBR3, PC3, HT1299, Saos-2, C-6, AsPc, MDA-MB-231, RKO, HeLa and TT, and normal cell lines HME 50 HT, BJ and CCD-1074sk were tested for changes in metabolism (XTT assay) and cell death (cell counts).
(§1) Cells were plated into 48-well Corning CellBind™ plates at densities of 20,000 cells for normal cells and 10,000˜20,000 cells for cancer cells. 24 to 48 h after plating, cells were treated with the composition according to the invention at concentrations of 4.5e-2M. The first time point treated with the composition of the invention is 0 h. At 3 days after the first treatment with the composition of the invention, medium was changed and the composition of the invention at the same concentrations were added to the cultured cells.
The XTT assay is an accepted analysis technique for viability and cytotoxicity of anticancer drugs or other pharmaceutical compositions. Cells were seeded in a 96-well tissue culture plate at a density of 10,000 cells for normal cells and 5,000 cells for cancer cells. After incubation period, the formazan dye formed was quantitated using an ELISA reader. The optimal wavelength used in experiments was 500 nm, and it was measured at 0 h, 12 h, 24 h, 48 h, 4 d and 7 d, respectively. The obtained values were generated using the software SoftMax Pro 4.8.
The cell viability was calculated according to the manufacturer's instructions as follows (the term “blank” means XTT in medium only):
Cellular cytotoxicity was calculated according to the manufacturer's instructions as follows: […]

[2] = system: AsPc; test: Cell counts, AsPc; type: cell-based
Experimental: (§4) Cells were harvested using Trypsin-EDTA at the designated time points. […] Two 48-well plates were used per cell line, and they were measured at 0 h, 12 h, 24 h, 48 h, 4 d and 7 d, respectively.
(§5) In the 1st plate, cells were treated with the composition according to the invention and medium was changed at 0 h and 3 d. […] As a result, LC-50 curves were generated in the 1st week.
(§6) At 0 h of the 2nd week, medium was exchanged with untreated medium for the remainder of the experiment. […] As a result, Recovery curves were generated in the 2nd week.

[3] = system: CCD-1074sk; test: in vitro; type: cell-based; conditions: human, 220 nM
[4] = in vitro; type: cell-based; conditions: human
[5] = system: HeLa; test: Cell counts, HeLa; type: cell-based
Experimental: As a result, LC-50 curves were generated in the 1st week.
In the 2nd plate, 7 d of the 1st week (LC-50) is the same as 0 h of the 2nd week (recovery).
At 0 h of the 2nd week, medium was exchanged with untreated medium for the remainder of the experiment. The untreated controls were not measured in the 2nd week (recovery) due to overconfluence by the end of the 1st week. As a result, Recovery curves were generated in the 2nd week.

[6] = system: Saos-2; test: Cell counts, Saos-2; type: cell-based
Experimental: as §4, §5, §6

[7] = system: MDA-MB-231; conditions: human, 0 h, 220 nM
Experimental: as §1
(§2) Cells were harvested using Trypsin-EDTA at the designated time points. When total cells for each well were counted with a Beckman-Coulter Z1 Particle Characterization Unit, the vertical axis represents 1/20 of cell number in the Figures attached to the specification, while when counted with a Beckman-Coulter Vi-Cell, the vertical axis represents cell number in the Figures. Two 48-well plates were used per cell line, and they were measured at 0 h, 12 h, 24 h, 48 h, 4 d and 7 d, respectively.
(§3) The viability was determined by using the trypan blue staining in the well of cell counting.

[8] = system: HeLa; conditions: human, 0 h, 220 nM
Experimental: as §1, §2, §3

[9] = system: RKO; conditions: human, 220 nM
Experimental: as §1, §2, §3

[10] = system: SKBR3; conditions: human, 220 nM
Experimental: as §1, §2, §3

[11] = HCC 1419, 1st week (LC50), 24 h
[12] = HCC 1419, 1st week (LC50), 48 h
[13] = HCC 1419, 2nd week (recovery), 0 h
[14] = HCC 1419, 2nd week (recovery), 48 h
[15] = HCC 1419, 2nd week (recovery), 4 d
[16] = viability (%) calculated from the cell counts

CC(=O)O[C@H]1C(=O)[C@@]2(C)[C@H]([C@H](OC(=O)c3ccccc3)[C@]3(O)C[C@H](OC(=O)[C@H](O)[C@@H](NC(=O)c4ccccc4)c4ccccc4)C(C)=C1C3(C)C)[C@]1(OC(C)=O)CO[C@@H]1C[C@@H]2O [Taxol]
The absorbance, Mean value ([1]; HCC 1419, 1st week (LC50), 0 h): 2.5924
The absorbance ([1]; HCC 1419, 1st week (LC50), 0 h): 2.5534 and 2.6558 and 2.5679
The absorbance, group - Blank ([1]; HCC 1419, 1st week (LC50), 12 h): 2.0317
The absorbance, Mean value [1, 11]: 2.8401
The absorbance, group - Blank [1, 11]: 2.5035
The absorbance [1, 11]: 2.9427 and 2.856 and 2.7216
The absorbance, Mean value [1, 12]: 3.4706
The absorbance, group - Blank [1, 12]: 3.1340
The absorbance [1, 12]: 3.7945 and 2.9086 and 3.7087
The absorbance, Mean value ([1]; HCC 1419, 1st week (LC50), 4 d): 2.6666
The absorbance ([1]; HCC 1419, 1st week (LC50), 4 d): 2.6667 and 2.7014 and 2.6316
The absorbance, Mean value ([1]; HCC 1419, 1st week (LC50), 7 d): 2.5386
The absorbance ([1]; HCC 1419, 1st week (LC50), 7 d): 2.6877 and 2.5421
The absorbance, Mean value [1, 13]: 2.4911
The absorbance [1, 13]: 2.7348
The absorbance ([1]; HCC 1419, 2nd week (recovery), 24 h): 2.4388
The absorbance, Mean value [1, 14]: 2.6525
The absorbance, group - Blank [1, 14]: 2.4436
The absorbance [1, 14]: 2.6611 and 2.6375 and 2.6588
The absorbance, Mean value [1, 15]: 2.6058
The absorbance [1, 15]: 2.7024 and 2.5033 and 2.6116
The viability ([1]; HCC 1419, XTT, 1/100 of %, 2nd week (recovery), 48 h): 0.8937
The viability ([1]; human, 12 h, 220 nM): 0.7658
The viability ([1]; human, 48 h, 220 nM): 1.1461
The viability ([1]; human, 7 d, 220 nM): 0.9883
process of cell death (microscopy) [2]: cell membranes were ruptured by toxicity of Taxol, and then nuclei of cells changed into black
cell counts ([2]; 1st week (LC50), 0 h): 2340 and 2039 and 2111
cell counts, Mean value ([2]; 1st week (LC50), 0 h): 2163
cell counts ([2]; 1st week (LC50), 12 h): 2833 and 2279 and 2550
cell counts, Mean value ([2]; 1st week (LC50), 12 h): 2554
cell counts ([2]; 1st week (LC50), 24 h): 2336 and 2161 and 2310
cell counts, Mean value ([2]; 1st week (LC50), 24 h): 2269
cell counts ([2]; 1st week (LC50), 48 h): 2810 and 2130 and 1800
cell counts ([2]; 1st week (LC50), 4 d): 2007 and 2100
cell counts, Mean value ([2]; 1st week (LC50), 4 d): 2042
cell counts ([2]; 1st week (LC50), 7 d): 2174 and 1902
cell counts, Mean value ([2]; 1st week (LC50), 7 d): 1823
cell counts ([2]; 2nd week (recovery), 0 h): 1213 and 1770
cell counts ([2]; 2nd week (recovery), 48 h): 1210 and 1202
cell counts, Mean value ([2]; 2nd week (recovery), 4 d): 631
cell counts ([2]; 2nd week (recovery), 7 d): 73 and 85
cell counts, Mean value ([2]; 2nd week (recovery), 7 d): 86
viability (%), Mean value ([3]; 0 h): 79%
viability (%) calculated from the cell counts ([3]; 48 h): 83%
viability (%) calculated from the cell counts ([3]; 4 d): 33%
viability at 0 h, 2.2e-07 M [4, 16]: 70%
viability at 24 h, 2.2e-07 M [4, 16]: 71%
viability at 4 d, 2.2e-07 M [4, 16]: 43%
viability at 0 h, 2.2e-07 M ([4]; viability (%), Mean value): 73%
viability at 24 h, 2.2e-07 M ([4]; viability (%), Mean value): 80%
viability at 4 d, 2.2e-07 M ([4]; viability (%), Mean value): 38%
cell counts ([5]; 1st week (LC50), 0 h): 158000 and 136000 and 184000
cell counts, Mean value ([5]; 1st week (LC50), 0 h): 159333
cell counts ([5]; 1st week (LC50), 24 h): 158000 and 276000 and 219000
cell counts, Mean value ([5]; 1st week (LC50), 24 h): 217667
cell counts ([5]; 1st week (LC50), 48 h): 105000 and 70000 and 79000
cell counts, Mean value ([5]; 1st week (LC50), 48 h): 84667
cell counts ([5]; 1st week (LC50), 4 d): 26000 and 39000 and 31000
cell counts, Mean value ([5]; 1st week (LC50), 4 d): 32000
cell counts ([5]; 1st week (LC50), 7 d): 36000 and 34000 and 32000
cell counts, Mean value ([5]; 1st week (LC50), 7 d): 34000
cell counts ([5]; 2nd week (recovery), 0 h): 31000 and 34000 and 35000
cell counts, Mean value ([5]; 2nd week (recovery), 0 h): 33333
cell counts, Mean value ([5]; 2nd week (recovery), 24 h): 23333
cell counts ([5]; 2nd week (recovery), 48 h): 12000 and 23500 and 22000
cell counts, Mean value ([5]; 2nd week (recovery), 48 h): 19167
cell counts ([5]; 2nd week (recovery), 4 d): 22000 and 18000 and 13000
cell counts, Mean value ([5]; 2nd week (recovery), 4 d): 17667
cell counts ([5]; 2nd week (recovery), 7 d): 18000
cell counts, Mean value ([5]; 2nd week (recovery), 7 d): 18000
process of cell death (microscopy) [6]: cell membranes were ruptured by toxicity of Taxol, and then nuclei of cells changed into black
cell counts ([6]; 1st week (LC50), 0 h): 2143 and 2221 and 2135
cell counts, Mean value ([6]; 1st week (LC50), 0 h): 2166
cell counts ([6]; 1st week (LC50), 12 h): 1756 and 1790 and 1705
cell counts, Mean value ([6]; 1st week (LC50), 12 h): 1750
cell counts ([6]; 1st week (LC50), 24 h): 1529 and 1376 and 1452
cell counts, Mean value ([6]; 1st week (LC50), 24 h): 1452
cell counts ([6]; 1st week (LC50), 48 h): 857 and 822 and 776
cell counts, Mean value ([6]; 1st week (LC50), 48 h): 818
cell counts, Mean value ([6]; 1st week (LC50), 4 d): 420
cell counts, Mean value ([6]; 2nd week (recovery), 0 h): 609
cell counts, Mean value ([6]; 2nd week (recovery), 24 h): 183
cell counts ([6]; 2nd week (recovery), 48 h): 312 and 249 and 165
cell counts, Mean value ([6]; 2nd week (recovery), 48 h): 242
cell counts ([6]; 2nd week (recovery), 4 d): 416 and 589 and 602
cell counts, Mean value ([6]; 2nd week (recovery), 4 d): 536
cell counts, Mean value ([6]; 2nd week (recovery), 7 d): 635
viability (%), Mean value [7]: 44.2%
viability (%), Mean value [8]: 75.4%
viability (%), Mean value ([9]; 0 h): 40%
viability (%), Mean value ([9]; 24 h): 43%
viability (%), Mean value ([10]; 24 h): 70%
viability (%) calculated from the cell counts ([10]; 48 h): 0%
viability (%), Mean value ([10]; 48 h): 17%
viability (%) calculated from the cell counts ([10]; 4 d): 0%
viability (%), Mean value ([10]; 4 d): 33%
viability (%), Mean value ([10]; 7 d): 50%
